Molecular target: T1, Tam41 (Saccharomyces cerevisiae, UniProt P53230)
T1 sequence (P53230 27-385): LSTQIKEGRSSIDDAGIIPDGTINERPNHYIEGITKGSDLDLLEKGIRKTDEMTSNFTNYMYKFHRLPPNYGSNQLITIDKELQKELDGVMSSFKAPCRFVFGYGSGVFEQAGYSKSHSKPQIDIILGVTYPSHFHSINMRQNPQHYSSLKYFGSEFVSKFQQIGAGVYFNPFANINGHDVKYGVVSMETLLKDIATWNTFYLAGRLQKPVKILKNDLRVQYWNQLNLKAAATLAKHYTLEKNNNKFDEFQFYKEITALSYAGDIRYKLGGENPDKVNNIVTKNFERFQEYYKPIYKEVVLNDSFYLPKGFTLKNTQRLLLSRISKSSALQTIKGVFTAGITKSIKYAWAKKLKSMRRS
Experiment: CDP-DAG formation, TLC with fluorescence imaging
Assay type: biochemical
Conditions: 2 mM CTP; 2 mM MgCl2; Tris-HCl pH 7.5; 0.2% Triton X-100; 30 °C; 10 min; labelled compound

Km: 67 ± 10 µM
Substance: NBD-PA
